Values quoted from earlier work in patent US20220378756A1, “ACTIVATING PYRUVATE KINASE R” (FORMA Therapeutics, Inc., priority 2019, published 2022).
Read-outs that look alike come from different tables or passages of the source.

How the values were obtained:
aromatase = molecular target: T1, aromatase (Homo sapiens, UniProt P11511); settings: Yang et al. 2018; Grace et al. 2019; cited from earlier work
T1 sequence (P11511 1-503): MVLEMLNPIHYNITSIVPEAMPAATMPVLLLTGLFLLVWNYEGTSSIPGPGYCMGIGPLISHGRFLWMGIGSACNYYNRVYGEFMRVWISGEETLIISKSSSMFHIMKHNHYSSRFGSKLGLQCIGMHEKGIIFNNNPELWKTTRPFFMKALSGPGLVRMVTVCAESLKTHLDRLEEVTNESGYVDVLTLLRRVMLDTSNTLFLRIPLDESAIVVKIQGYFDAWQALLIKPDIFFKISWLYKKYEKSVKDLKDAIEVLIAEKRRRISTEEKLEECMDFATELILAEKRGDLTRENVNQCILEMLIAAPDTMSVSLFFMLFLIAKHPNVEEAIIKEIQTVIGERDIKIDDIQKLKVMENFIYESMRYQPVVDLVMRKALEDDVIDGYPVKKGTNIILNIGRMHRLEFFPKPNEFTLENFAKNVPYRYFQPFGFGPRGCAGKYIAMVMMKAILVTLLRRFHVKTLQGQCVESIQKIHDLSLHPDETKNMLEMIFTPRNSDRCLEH

[1] = cited from earlier work

Compound: O=C(c1ccc(NS(=O)(=O)c2cccc3cccnc23)cc1)N1CCN(CC2CC2)CC1 [AG-348]
- aromatase inhibition (aromatase): Aromatase inhibition has been observed

Compound: CC(C)n1nccc1-c1ncccc1COc1cccc(O)c1C=O [voxelotor, 2-hydroxy-6-((2-(1-isopropyl-1H-pyrazol-5-yl)pyridin-3-yl)methoxy)benzaldehyde]
- AUC increase with high-fat, high-calorie meal vs fasted ([1]; plasma): 42%
- Cmax increase with high-fat, high-calorie meal vs fasted ([1]; plasma): 95%
- steady state AUC higher in HbSC vs HbSS genotype patients ([1]; plasma): 23%
- steady state Cmax higher in HbSC vs HbSS genotype patients ([1]; plasma): 15%
- AUC increase with high-fat, high-calorie meal vs fasted ([1]; whole blood): 42%
- Cmax increase with high-fat, high-calorie meal vs fasted ([1]; whole blood): 45%
- steady state AUC higher in HbSC (n=11) vs HbSS (n=220) genotype patients ([1]; whole blood): 50%
- steady state Cmax higher in HbSC (n=11) vs HbSS (n=220) genotype patients ([1]; whole blood): 45%
